Results taken from patent US20250059220A1, “SUBSTITUTED BENZOTHIOPHENE DERIVATIVES AND METHODS OF USE THEREOF” (Merck Sharp & Dohme LLC, priority 2021, published 2025).

Key:
human PTPN2 (1-387) = human PTPN2 (1-387) (Homo sapiens (Human), UniProt P17706); test: Human PTPN2 Biochemical Assay; settings: DiFMUP substrate
Experimental: Human PTPN2 Biochemical Assay
Test compounds were dissolved in DMSO, and 10-point serial 3-fold dilution series in DMSO were prepared in Echo Qualified 384-well Polypropylene Microplates (Labcyte, San Jose, CA) (top concentration 50 µM). Assay plates (384-well low volume black plates; Corning #3820, Corning, NY) were prepared by dispensing 50 nL of test compound, and DMSO (for high and low controls) by ECHO acoustic dispenser (Labcyte, San Jose CA). This was followed by addition of 5 μL of 0.2 nM human PTPN2 (1-387) solution (prepared in the assay buffer, 50 mM Tris pH 7.4, 150 mM NaCl, 0.01% Tween20, 0.5 mM dithiothreitol) to all wells except the low control. 5 μl of assay buffer was added into the low control, then the plate was incubated for 30 minutes at room temperature. Subsequently, 5 μl of 100 µM DiFMUP (6,8-difluoro-4-methylumbelliferyl phosphate) solution (prepared in assay buffer from 10 mM stock in DMSO) was added to the assay plate and incubated for 1 hour at room temperature. For detection, assay plates were read on SpectraMax Microplate Reader (Molecular Devices), with Excitation wavelength=360 nm and Emission wavelength=460 nm. Test compound effects were normalized to the window defined by the controls, DMSO/buffer, and DMSO/50 pM human PTPN2. Calculated % effects were fit using a 4-parameter algorithm, and EC50 was reported.

human PTPN1 (1-435) = human PTPN1 (1-435) (Homo sapiens (Human), UniProt P18031); test: Human PTPN1 Biochemical Assay; settings: DiFMUP substrate, read-out: PTP1B IC50
Sequence of human PTPN1 (1-435) (P18031 whole entry): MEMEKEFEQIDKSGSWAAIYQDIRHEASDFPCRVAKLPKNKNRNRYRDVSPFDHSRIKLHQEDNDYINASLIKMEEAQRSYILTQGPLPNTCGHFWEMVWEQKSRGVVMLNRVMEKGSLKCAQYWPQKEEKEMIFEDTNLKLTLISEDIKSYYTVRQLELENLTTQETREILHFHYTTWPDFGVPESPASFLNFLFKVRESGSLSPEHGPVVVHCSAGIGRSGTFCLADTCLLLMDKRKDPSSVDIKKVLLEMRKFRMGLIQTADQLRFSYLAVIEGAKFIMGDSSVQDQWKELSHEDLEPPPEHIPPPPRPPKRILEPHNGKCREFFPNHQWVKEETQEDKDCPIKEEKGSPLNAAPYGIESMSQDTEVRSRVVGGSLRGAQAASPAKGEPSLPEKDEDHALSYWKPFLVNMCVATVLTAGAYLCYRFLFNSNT
Experimental: Human PTPN1 Biochemical Assay
Test compounds were dissolved in DMSO, and 10-point serial 3-fold dilution series in DMSO were prepared in Echo Qualified 384-well Polypropylene Microplates (Labcyte, San Jose, CA) (top concentration 50 µM). […] 5 μl of assay buffer was added into the low control. The plate was incubated for 30 minutes at room temperature. Subsequently, 5 μl of 100 µM DiFMUP (6,8-difluoro-4-methylumbelliferyl phosphate) solution (prepared in assay buffer from 10 mM stock in DMSO) was added to the assay plate and incubated for 1 hour at room temperature. For detection, assay plates were read on SpectraMax Microplate Reader (Molecular Devices), with Excitation wavelength=360 nm and Emission wavelength=460 nm. […] Calculated % effects were fit using a 4-parameter algorithm, and EC50 was reported.

Sequence of human PTPN2 (1-387) (P17706 other isoform, or with tags, fused parts or gaps): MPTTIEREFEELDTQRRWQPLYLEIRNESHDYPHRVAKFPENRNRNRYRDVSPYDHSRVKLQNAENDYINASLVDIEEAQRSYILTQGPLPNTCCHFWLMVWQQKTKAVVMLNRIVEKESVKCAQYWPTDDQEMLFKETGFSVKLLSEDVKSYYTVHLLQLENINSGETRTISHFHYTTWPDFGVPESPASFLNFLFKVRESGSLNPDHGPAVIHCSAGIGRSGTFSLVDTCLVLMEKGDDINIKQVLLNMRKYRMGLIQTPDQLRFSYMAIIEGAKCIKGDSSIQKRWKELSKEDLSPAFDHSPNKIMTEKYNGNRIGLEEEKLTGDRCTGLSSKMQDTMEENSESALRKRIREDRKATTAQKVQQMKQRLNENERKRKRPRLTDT

| Compound | IC50 (human PTPN2 (1-387)) | IC50 (human PTPN1 (1-435)) |
| --- | --- | --- |
| O=C(NC(c1ccccc1)c1cccnc1)c1ccc2sc(C(F)(F)P(=O)(O)O)c(Br)c2c1 (stereo not shown) [Compound 65] | 4.85 µM | 4.3 µM |
| O=C(NC1CCN(Cc2ccccc2)C1)c1ccc2sc(C(F)(F)P(=O)(O)O)c(Br)c2c1 (stereo not shown) [Compound 67] | 4.89 µM | 3.18 µM |
| O=C(NC1CCCN(Cc2ccccc2F)C1)c1ccc2sc(C(F)(F)P(=O)(O)O)c(Br)c2c1 (stereo not shown) [Compound 68] | 4.24 µM | 3.77 µM |
| C[C@@H](Cc1cccc(C(F)(F)F)c1)NC(=O)c1ccc2sc(C(F)(F)P(=O)(O)O)c(Br)c2c1 [Compound 69] | 4.16 µM | 6.25 µM |
| CC(C)(NC(=O)c1ccc2sc(C(F)(F)P(=O)(O)O)c(Br)c2c1)c1ncn(-c2ccccc2)n1 [Compound 70] | 8.75 µM | 9.21 µM |
| CC(NC(=O)c1ccc2sc(C(F)(F)P(=O)(O)O)c(Br)c2c1)c1cccc2ccccc12 (stereo not shown) [Compound 71] | 3.53 µM | 3.65 µM |
| O=C(NCCc1cnc2n(c1=O)CCCC2)c1ccc2sc(C(F)(F)P(=O)(O)O)c(Br)c2c1 [Compound 72] | 3.52 µM | 2.75 µM |
| CC(=O)N1CCC(CNC(=O)c2ccc3sc(C(F)(F)P(=O)(O)O)c(Br)c3c2)(C(F)(F)F)C1 (stereo not shown) [Compound 74] | 7.44 µM | 5.76 µM |
| O=C(N[C@H]1CC(=O)N(C2CC2)C1)c1ccc2sc(C(F)(F)P(=O)(O)O)c(Br)c2c1 [Compound 79] | 9.75 µM | 8.1 µM |
| CCC(COCc1ccccc1)NC(=O)c1ccc2sc(C(F)(F)P(=O)(O)O)c(Br)c2c1 (stereo not shown) [Compound 84] | 3.47 µM | 7.43 µM |
| CCN1C(=O)CCC12C[C@H]2CCNC(=O)c1ccc2sc(C(F)(F)P(=O)(O)O)c(Br)c2c1 (stereo partly shown) [Compound 85] | 4.54 µM | 4.67 µM |
| O=C(NCCn1nnc2ccccc21)c1ccc2sc(C(F)(F)P(=O)(O)O)c(Br)c2c1 [Compound 89] | 6.04 µM | 5.12 µM |
| O=C(NCc1ccccc1N1CCOCC1)c1ccc2sc(C(F)(F)P(=O)(O)O)c(Br)c2c1 [Compound 90] | 5.8 µM | 4.21 µM |
| O=C(NCc1nccc(-c2cccnc2)n1)c1ccc2sc(C(F)(F)P(=O)(O)O)c(Br)c2c1 [Compound 91] | 6.17 µM | 4.98 µM |
| CC(C)C1CC(CNC(=O)c2ccc3sc(C(F)(F)P(=O)(O)O)c(Br)c3c2)C1 (stereo not shown) [Compound 93] | 4.33 µM | 4.13 µM |
| COc1cccc(CNC(=O)c2ccc3sc(C(F)(F)P(=O)(O)O)c(Br)c3c2)c1OC(F)F [Compound 95] | 4.78 µM | 3.9 µM |
| O=C(N[C@H]1CCCNC1=O)c1ccc2sc(C(F)(F)P(=O)(O)O)c(Br)c2c1 [Compound 97] | 8.23 µM | 7.08 µM |
| CC1CCCC(NC(=O)c2ccc3sc(C(F)(F)P(=O)(O)O)c(Br)c3c2)C1 (stereo not shown) [Compound 98] | 4.73 µM | 4.57 µM |
| CCn1nccc1NC(=O)c1ccc2sc(C(F)(F)P(=O)(O)O)c(Br)c2c1 [Compound 99] | 3.79 µM | 2.62 µM |
| CC(NC(=O)c1ccc2sc(C(F)(F)P(=O)(O)O)c(Br)c2c1)c1cnccn1 (stereo not shown) [Compound 103] | 3.46 µM | 3.14 µM |
| O=C(Nc1cccc(CO)n1)c1ccc2sc(C(F)(F)P(=O)(O)O)c(Br)c2c1 [Compound 104] | 6.5 µM | 9.15 µM |
| CCC(NC(=O)c1ccc2sc(C(F)(F)P(=O)(O)O)c(Br)c2c1)c1nccs1 (stereo not shown) [Compound 105] | 5.78 µM | 5.14 µM |
| Cc1c(NC(=O)c2ccc3sc(C(F)(F)P(=O)(O)O)c(Br)c3c2)cccc1C(=O)N1CCCC1 [Compound 106] | 8.97 µM | 6.92 µM |
| COCCOc1cc(C)ccc1NC(=O)c1ccc2sc(C(F)(F)P(=O)(O)O)c(Br)c2c1 [Compound 107] | 4.03 µM | 3.86 µM |
| O=C(Nc1ccccc1OC1CCOCC1)c1ccc2sc(C(F)(F)P(=O)(O)O)c(Br)c2c1 [Compound 108] | 3.62 µM | 4.08 µM |
| O=C(NC1COc2ccccc2C1)c1ccc2sc(C(F)(F)P(=O)(O)O)c(Br)c2c1 (stereo not shown) [Compound 110] | 3.56 µM | 3.2 µM |
| O=C(NC1(c2cncc(C(F)(F)F)c2)CC1)c1ccc2sc(C(F)(F)P(=O)(O)O)c(Br)c2c1 [Compound 111] | 4.26 µM | 3.98 µM |
| CC(NC(=O)c1ccc2sc(C(F)(F)P(=O)(O)O)c(Br)c2c1)c1ccccc1-n1cccn1 (stereo not shown) [Compound 113] | 4.17 µM | 4.08 µM |

These reach a lower IC50 (human PTPN2 (1-387)). Values come first.

| IC50 (human PTPN2 (1-387)) | IC50 (human PTPN1 (1-435)) | Compound |
| --- | --- | --- |
| 0.904 µM | 0.638 µM | O=C(Nc1cccc(-c2cnco2)c1)c1ccc2sc(C(F)(F)P(=O)(O)O)c(Br)c2c1 [Compound 61] |
| 1.61 µM | 2 µM | O=C(Nc1ccccc1-c1ccccc1)c1ccc2sc(C(F)(F)P(=O)(O)O)c(Br)c2c1 [Compound 62] |
| 0.542 µM | 0.444 µM | CC1CCc2c(sc(NC(=O)c3ccc4sc(C(F)(F)P(=O)(O)O)c(Br)c4c3)c2C#N)C1 (stereo not shown) [Compound 63] |
| 1.8 µM | 1.44 µM | O=C(Nc1ccc(Cn2cccn2)cc1)c1ccc2sc(C(F)(F)P(=O)(O)O)c(Br)c2c1 [Compound 64] |
| 0.719 µM | 0.516 µM | N#Cc1cccc(-c2cccc(NC(=O)c3ccc4sc(C(F)(F)P(=O)(O)O)c(Br)c4c3)c2)c1 [Compound 66] |
| 3.08 µM | 2.56 µM | Cc1cc(NC(=O)c2ccc3sc(C(F)(F)P(=O)(O)O)c(Br)c3c2)n(Cc2ccccc2)n1 [Compound 73] |
| 2.7 µM | 1.85 µM | O=C(N[C@@H]1CCCC[C@H]1OCc1ccccc1)c1ccc2sc(C(F)(F)P(=O)(O)O)c(Br)c2c1 [Compound 75] |
| 0.958 µM | 1.88 µM | O=C(NC1CCCN(c2ccccc2)C1)c1ccc2sc(C(F)(F)P(=O)(O)O)c(Br)c2c1 (stereo not shown) [Compound 76] |
| 1.11 µM | 0.73 µM | CC(=O)N1CCc2ccc(NC(=O)c3ccc4sc(C(F)(F)P(=O)(O)O)c(Br)c4c3)cc21 [Compound 77] |
| 1.03 µM | 1.09 µM | CN1C[C@H]2[C@H](CNC(=O)c3ccc4sc(C(F)(F)P(=O)(O)O)c(Br)c4c3)[C@H]2c2ccccc21 [Compound 78] |
| 1.89 µM | 2.13 µM | CC(NC(=O)c1ccc2sc(C(F)(F)P(=O)(O)O)c(Br)c2c1)c1ccc2c(c1)OCCO2 (stereo not shown) [Compound 80] |
| 0.0273 µM | 0.115 µM | CC(Cn1ccc2ccccc21)NC(=O)c1ccc2sc(C(F)(F)P(=O)(O)O)c(Br)c2c1 (stereo not shown) [Compound 81] |
| 1.88 µM | 1.39 µM | O=C(NCCc1nc(-c2ccccc2)cs1)c1ccc2sc(C(F)(F)P(=O)(O)O)c(Br)c2c1 [Compound 82] |
| 2.01 µM | 1.63 µM | N#Cc1ccc2c(c1)CC(NC(=O)c1ccc3sc(C(F)(F)P(=O)(O)O)c(Br)c3c1)C2 (stereo not shown) [Compound 83] |
| 1.45 µM | 3.78 µM | O=C(N[C@@H]1CCCC[C@H]1c1ccccc1)c1ccc2sc(C(F)(F)P(=O)(O)O)c(Br)c2c1 [Compound 86] |
| 3.3 µM | 7.09 µM | COc1ccc(CCC(C)NC(=O)c2ccc3sc(C(F)(F)P(=O)(O)O)c(Br)c3c2)cc1 (stereo not shown) [Compound 87] |
| 1.51 µM | 1.09 µM | O=C(NC[C@]12C[C@@H]1CCN2Cc1ccccc1)c1ccc2sc(C(F)(F)P(=O)(O)O)c(Br)c2c1 [Compound 88] |
| 3.16 µM | 1.94 µM | CC(C)(O)c1ccc(CNC(=O)c2ccc3sc(C(F)(F)P(=O)(O)O)c(Br)c3c2)cn1 [Compound 92] |
| 2.8 µM | 2.4 µM | O=C(NCCc1c[nH]c2ccc(F)cc12)c1ccc2sc(C(F)(F)P(=O)(O)O)c(Br)c2c1 [Compound 94] |
| 1.28 µM | 0.94 µM | Cn1cc(NC(=O)c2ccc3sc(C(F)(F)P(=O)(O)O)c(Br)c3c2)cn1 [Compound 96] |
| 0.682 µM | 0.54 µM | O=C(Nc1ccc(Sc2ccccc2)nc1)c1ccc2sc(C(F)(F)P(=O)(O)O)c(Br)c2c1 [Compound 100] |
| 2.36 µM | 1.78 µM | O=C(Nc1cccc(C(=O)N2CCCC2)c1)c1ccc2sc(C(F)(F)P(=O)(O)O)c(Br)c2c1 [Compound 101] |
| 2.46 µM | 2.88 µM | CC(NC(=O)c1ccc2sc(C(F)(F)P(=O)(O)O)c(Br)c2c1)c1cccc(OC(F)(F)F)c1 (stereo not shown) [Compound 102] |
| 0.78 µM | 0.465 µM | O=C(Nc1cccc(-n2nccn2)c1)c1ccc2sc(C(F)(F)P(=O)(O)O)c(Br)c2c1 [Compound 109] |
| 2.91 µM | 3.68 µM | COCC(NC(=O)c1ccc2sc(C(F)(F)P(=O)(O)O)c(Br)c2c1)c1ccc(F)cc1 (stereo not shown) [Compound 112] |
